Assay results: patent US9957264B2 (Merck Sharp & Dohme Corp., priority 2013, dated 2018)

How the values were obtained:
[1] = target: JAK1 (recombinant purified GST-tagged catalytic domain) (Homo sapiens (Human), UniProt P23458); experiment: Jak Biochemical HTRF Assay (JAK1); conditions: [ATP] 31.8 μM
Summary of the method: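 HTRF format, biotinylated peptide substrate; ATP-initiated reaction 120 min RT; EDTA quench + streptavidin-Dylight 650/Eu-anti-pY20 detection, 60 min RT; signal = 665/615 ratio ×10,000; normalized % inhibition, 4-parameter fit → IC50.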

[2] = target: JAK2 (recombinant purified GST-tagged catalytic domain) (Homo sapiens (Human), UniProt O60674); experiment: Jak Biochemical HTRF Assay (JAK2); conditions: [ATP] 8.5 μM
JAK2 (recombinant purified GST-tagged catalytic domain), sequence (O60674 849-1124): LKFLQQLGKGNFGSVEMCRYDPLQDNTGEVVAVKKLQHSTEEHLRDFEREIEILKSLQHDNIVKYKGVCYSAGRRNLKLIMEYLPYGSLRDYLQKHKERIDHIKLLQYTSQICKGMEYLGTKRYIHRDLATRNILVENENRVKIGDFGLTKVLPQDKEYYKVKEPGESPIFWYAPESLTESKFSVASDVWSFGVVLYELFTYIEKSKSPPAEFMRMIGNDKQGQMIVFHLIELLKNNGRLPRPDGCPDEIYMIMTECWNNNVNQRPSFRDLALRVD

JAK1 (recombinant purified GST-tagged catalytic domain), sequence (P23458 875-1153): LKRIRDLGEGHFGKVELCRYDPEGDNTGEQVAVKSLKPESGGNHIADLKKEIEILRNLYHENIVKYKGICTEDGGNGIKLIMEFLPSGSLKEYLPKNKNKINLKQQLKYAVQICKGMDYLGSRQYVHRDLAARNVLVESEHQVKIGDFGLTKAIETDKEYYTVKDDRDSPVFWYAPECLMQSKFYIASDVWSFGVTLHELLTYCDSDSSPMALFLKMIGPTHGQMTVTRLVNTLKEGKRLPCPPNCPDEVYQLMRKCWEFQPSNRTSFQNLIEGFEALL

Compound `CN(C)S(=O)(=O)c1ccc(Nc2nn(C3(CC#N)CCN(Cc4ccccc4)CC3)c3cc[nH]c(=O)c23)cc1` [Example 8-1, 4-({1-[1-benzyl-4-(cyanomethyl)piperidin-4-yl]-4-oxo-4,5-dihydro-1H-pyrazolo[4,3-c]pyridin-3-yl}amino)-N,N-dimethylbenzenesulfonamide] has an IC50 [1] of 0.17 nM and an IC50 [2] of 0.38 nM.
`CN(C)S(=O)(=O)c1ccc(Nc2nn(C3(CC#N)CCN(Cc4ccc(C(F)(F)F)cc4)CC3)c3cc[nH]c(=O)c23)cc1` [Example 8-3, 4-[(1-{4-(cyanomethyl)-1-[4-(trifluoromethyl)benzyl]piperidin-4-yl}-4-oxo-4,5-dihydro-1H-pyrazolo[4,3-c]pyridin-3-yl)amino]-N,N-dimethylbenzenesulfonamide] was tested, and the IC50 [1] was 2.32 nM and the IC50 [2] was 8.62 nM.
Work on `CC(C)c1ccc(CN2CCC(CC#N)(n3nc(Nc4ccc(S(=O)(=O)N(C)C)cc4)c4c(=O)[nH]ccc43)CC2)cc1` [Example 8-4, 4-[(1-{4-(cyanomethyl)-1[4-(1-methylethyl)benzyl]piperidin-4-yl}-4-oxo-4,5-dihydro-1H-pyrazolo[4,3-c]pyridin-3-yl)amino]-N,N-dimethylbenzenesulfonamide] yielded an IC50 [1] of 6.9 nM and an IC50 [2] of 33.1 nM.
Work on `CC(C)Oc1ccc(CN2CCC(CC#N)(n3nc(Nc4ccc(S(=O)(=O)N(C)C)cc4)c4c(=O)[nH]ccc43)CC2)cc1` [Example 8-6, 4-[(1-{4-(cyanomethyl)-1-[4-(1methylethoxy)benzyl]piperidin-4-yl}-4-oxo-4,5-dihydro-1H-pyrazolo[4,3-c]pyridin-3-yl)amino]-N,N-dimethylbenzenesulfonamide] yielded an IC50 [1] of 1.94 nM and an IC50 [2] of 12.4 nM.
In the case of `CN(C)S(=O)(=O)c1ccc(Nc2nn(C3(CC#N)CCN(Cc4ccc(F)cc4)CC3)c3cc[nH]c(=O)c23)cc1` [Example 8-7, 4-({1-[4-(cyanomethyl)-1-(4-fluorobenzyl)piperidin-4-yl]-4-oxo-4,5-dihydro-1H-pyrazolo[4,3-c]pyridin-3-yl}amino)-N,N-dimethylbenzenesulfonamide], the IC50 [1] is reported as 0.21 nM and the IC50 [2] is reported as 0.63 nM.
For `CN(C)S(=O)(=O)c1ccc(Nc2nn(C3(CC#N)CCN(Cc4cccc(F)c4)CC3)c3cc[nH]c(=O)c23)cc1` [Example 8-8, 4-({1-[4-(cyanomethyl)-1-(3-fluorobenzyl)piperidin-4-yl]-4-oxo-4,5-dihydro-1H-pyrazolo[4,3-c]pyridin-3-yl}amino)-N,N-dimethylbenzenesulfonamide], the IC50 [1] was 0.29 nM and the IC50 [2] was 0.52 nM.
`CN(C)S(=O)(=O)c1ccc(Nc2nn(C3(CC#N)CCN(Cc4ccccc4F)CC3)c3cc[nH]c(=O)c23)cc1` [Example 8-9, 4-({1-[4-(cyanomethyl)-1-(2-fluorobenzyl)piperidin-4-yl]-4-oxo-4,5-dihydro-1H-pyrazolo[4,3-c]pyridin-3-yl}amino)-N,N-dimethylbenzenesulfonamide] was tested, and the IC50 [1] was 0.19 nM and the IC50 [2] was 0.28 nM.
Compound `CN(C)S(=O)(=O)c1ccc(Nc2nn(C3(CC#N)CCN(Cc4c(F)cccc4F)CC3)c3cc[nH]c(=O)c23)cc1` [Example 8-10, 4-({1-[4-(cyanomethyl)-1-(2,6-difluorobenzyl)piperidin-4-yl]-4-oxo-4,5-dihydro-1H-pyrazolo[4,3-c]pyridin-3-yl}amino)-N,N-dimethylbenzenesulfonamide] has an IC50 [1] of 0.19 nM and an IC50 [2] of 0.29 nM.
In the case of `CN(C)S(=O)(=O)c1ccc(Nc2nn(C3(CC#N)CCN(Cc4c(F)ccc(F)c4F)CC3)c3cc[nH]c(=O)c23)cc1` [Example 8-11, 4-({1-[4-(cyanomethyl)-1-(2,3,6-trifluorobenzyl)piperidin-4-yl]-4-oxo-4,5-dihydro-1H-pyrazolo[4,3-c]pyridin-3-yl}amino)-N,N-dimethylbenzenesulfonamide], the IC50 [1] is reported as 0.24 nM and the IC50 [2] is reported as 0.28 nM.
`CN(C)S(=O)(=O)c1ccc(Nc2nn(C3(CC#N)CCN(Cc4ncco4)CC3)c3cc[nH]c(=O)c23)cc1` [Example 8-12, 4-({1-[4-(cyanomethyl)-1-(1,3-oxazol-2-ylmethyl)piperidin-4-yl]-4-oxo-4,5-dihydro-1H-pyrazolo[4,3-c]pyridin-3-yl}amino)-N,N-dimethylbenzenesulfonamide] gave an IC50 [1] of 0.26 nM and an IC50 [2] of 0.99 nM.
